Results published in US20240197761A1, “FUCOSYLATION AND IMMUNE MODULATION IN CANCER” (H. LEE MOFFITT CANCER CENTER AND RESEARCH INSTITUTE, INC., priority 2021, published 2024).

System: SW1 tumors
Assay: Control vs. L-fucose ± FTY720 model: tumor growth and flow cytometric profiling of tumors and lymph nodes (Table 1)
Format: in vivo, C3H/HeN mice
Procedure: FIGS. 15A-15E Lymph node egress is necessary for L-fucose-triggered tumor suppression; L-fucose increases intratumoral CD4+T stem and central memory cells. (a) Immune subpopulations markers use to profile by flow cytometry. (b) Volumetric growth curves for SW1 tumors in C3H/HeN mice fed without (Ctl) or with L-fucose (LF) and treated with FTY720 (Ctl mice administered FTY720: (FTY); LF-supplemented mice administered FTY720: (L+F)). FTY720 was administered at 20 μg per mouse every 2 days starting on Day 12, just prior to the initiation of LF (c) Pie charts showing ratios of intratumoral or lymph node-resident CD4+ or CD8+T cell subpopulations, as well as DC subtypes from mice at Day 14, 28, and 42 (each pie chart represents 4-5 mice). Assessment of cytotoxic CD4+ T cell populations (CRTAM+) and cytotoxic CD8+ T cell populations (GrzB+) from tumors at Day 28 (d) and Day 42 (e). The tumor growth curves are means±SEM from ≥7 mice per group. *=p<0.05.
Tumors of SW1 or SM1 melanoma cells from […] or C57BL/6 mice, respectively) were digested using 1× tumor digest buffer (0.5 mg/mL Collagenase I, 0.5 mg/mL Collagenase IV, 0.25 mg/mL Hyalyronidase V, 0.1 mg/mL DNAse I in HBSS (Millipore Sigma (St. Louis, MO)). Tumors were homogenized using the Miltenyi MACs dissociator. Red blood cells were lysed using ACK lysis buffer (Life Technologies, (Grand Island, NY)). Tumor homogenate cells were counted using a standard hemocytometer.
Total TILs were gated first to single cells (based on forward scatter height vs width, followed by side scatter height vs. width). Live cells were gated from the Zombie negative population from the population above. TILs were gated based on splenocyte size from a control spleen. Individual immune subpopulations were sub-gated from the total TIL population using the following staining criteria: CD3+ for CD3+ T cells; CD3+/CD4+/CD8− for CD4+T cells; CD3+/CD4−/CD8+ for CD8+ T cells, CD11c+/CD11b+ for DCs; either NK1.1 (for C57/BL6 mice) or DX5 (for C3H/HeJ) for NK cells; CD11b+/GR1+ for MDSC-like cells; and F4/80+ for macrophages. Single-cell suspensions from tumor and spleen tissue were stained with Live/Dead Zombie NIR (Biolegend, (San Diego, CA)) at 1:1,000 in PBS for 20 min. Cell suspensions were spun down and stained with the following with antibodies at 0.5 μg/ml per antibody: APC anti-mouse CD3, Pacific Blue anti-mouse CD4, BV785 anti-mouse CD8, PerCP anti-mouse CD25, FITC anti-mouse F4/80, PeCy7 anti-mouse CD11c, PE anti-mouse NK1.1 or PE anti-mouse DX5, and PerCP-Cy5.5 anti-mouse CD11 b. After staining, the cells were washed and fixed (2% formaldehyde), followed by another wash and flow cytometric analysis. The compensation controls were prepared using 0.5 μg/mL of each antibody with UltraComp eBeads, (ThermoFisher Scientific (Waltham, MA)). All samples were subject to flow cytometric profiling using a LSR Flow Cytometer (BD Biosciences (San Jose, CA)) and analysis as indicated using FlowJo software (BD Biosciences (San Jose, CA)).
SW1 or SM1 mouse melanoma cells were injected into syngeneic C3H/HeN (or NSG) female or C57BL/6 male mice, respectively. Cells were injected as follows: parental SW1 cells for FIG. 13A; parental SM1 cells for FIG. 13E; SW1 cells stably expressing either empty vector (EV) or mouse fucose kinase (mFuk) for FIG. 1L; and parental SW1 cells for FIG. 13M. FTY720 was administered at 20 μg every 2 days starting on Day 12, just prior to the initiation of LF, until endpoint.

CCCCCCCCc1ccc(CCC(N)(CO)CO)cc1 [FTY720, reference compound]
CD4 central memory, average # of cells (Day 28, lymph nodes): 1362.38 per 10^6 cells of total tumor | CD4 effector memory, average # of cells (Day 28, lymph nodes): 372.53 per 10^6 cells of total tumor | CD4 naïve, average # of cells (Day 28, lymph nodes): 20717.91 per 10^6 cells of total tumor | CD4 stem central memory, average # of cells (Day 28, lymph nodes): 24893.27 per 10^6 cells of total tumor | CD8 central memory, average # of cells (Day 28, lymph nodes): 85.45 per 10^6 cells of total tumor | CD8 effector memory, average # of cells (Day 28, lymph nodes): 421.08 per 10^6 cells of total tumor | CD8 naïve, average # of cells (Day 28, lymph nodes): 6153.14 per 10^6 cells of total tumor | CD8 stem central memory, average # of cells (Day 28, lymph nodes): 311.59 per 10^6 cells of total tumor | cDC1, average # of cells (Day 28, lymph nodes): 147.79 per 10^6 cells of total tumor | cDC2, average # of cells (Day 28, lymph nodes): 448.71 per 10^6 cells of total tumor | moDC, average # of cells (Day 28, lymph nodes): 41.74 per 10^6 cells of total tumor | CD4 central memory, average # of cells (Day 28, tumors): 11.56 per 10^6 cells of total tumor | CD4 effector memory, average # of cells (Day 28, tumors): 336.07 per 10^6 cells of total tumor | CD4 naïve, average # of cells (Day 28, tumors): 60.03 per 10^6 cells of total tumor | CD4 stem central memory, average # of cells (Day 28, tumors): 0.87 per 10^6 cells of total tumor | CD8 central memory, average # of cells (Day 28, tumors): 1.22 per 10^6 cells of total tumor | CD8 effector memory, average # of cells (Day 28, tumors): 54.02 per 10^6 cells of total tumor | CD8 naïve, average # of cells (Day 28, tumors): 24.54 per 10^6 cells of total tumor | CD8 stem central memory, average # of cells (Day 28, tumors): 0.00 per 10^6 cells of total tumor | cDC1, average # of cells (Day 28, tumors): 463.94 per 10^6 cells of total tumor | cDC2, average # of cells (Day 28, tumors): 8181.08 per 10^6 cells of total tumor | moDC, average # of cells (Day 28, tumors): 7526.28 per 10^6 cells of total tumor | CD4 central memory, average # of cells (Day 42, lymph nodes): 949.35 per 10^6 cells of total tumor | CD4 effector memory, average # of cells (Day 42, lymph nodes): 3499.07 per 10^6 cells of total tumor | CD4 naïve, average # of cells (Day 42, lymph nodes): 65491.17 per 10^6 cells of total tumor | CD4 stem central memory, average # of cells (Day 42, lymph nodes): 742.12 per 10^6 cells of total tumor | CD8 central memory, average # of cells (Day 42, lymph nodes): 949.35 per 10^6 cells of total tumor | CD8 effector memory, average # of cells (Day 42, lymph nodes): 3499.07 per 10^6 cells of total tumor | CD8 naïve, average # of cells (Day 42, lymph nodes): 65491.17 per 10^6 cells of total tumor | CD8 stem central memory, average # of cells (Day 42, lymph nodes): 742.12 per 10^6 cells of total tumor | cDC1, average # of cells (Day 42, lymph nodes): 1731.49 per 10^6 cells of total tumor | cDC2, average # of cells (Day 42, lymph nodes): 3881.72 per 10^6 cells of total tumor | moDC, average # of cells (Day 42, lymph nodes): 1219.26 per 10^6 cells of total tumor | CD4 central memory, average # of cells (Day 42, tumors): 32.54 per 10^6 cells of total tumor | CD4 effector memory, average # of cells (Day 42, tumors): 160.89 per 10^6 cells of total tumor | CD4 naïve, average # of cells (Day 42, tumors): 44.22 per 10^6 cells of total tumor | CD4 stem central memory, average # of cells (Day 42, tumors): 18.52 per 10^6 cells of total tumor | CD8 central memory, average # of cells (Day 42, tumors): 5.73 per 10^6 cells of total tumor | CD8 effector memory, average # of cells (Day 42, tumors): 220.02 per 10^6 cells of total tumor | CD8 naïve, average # of cells (Day 42, tumors): 19.42 per 10^6 cells of total tumor | CD8 stem central memory, average # of cells (Day 42, tumors): 0.00 per 10^6 cells of total tumor | cDC1, average # of cells (Day 42, tumors): 607.65 per 10^6 cells of total tumor | cDC2, average # of cells (Day 42, tumors): 279.84 per 10^6 cells of total tumor | moDC, average # of cells (Day 42, tumors): 197.56 per 10^6 cells of total tumor | intratumoral CD4+T central and effector memory subpopulations (FIG. 15c): abrogated
